This is an account of results in patent US20090023753A1, “1,3-Thiazole-5-Carboxamides Useful as Cancer Chemotherapeutic Agents” (Bayer HealthCare AG, priority 2005, published 2009).

In experiment [1] the target is T1, Flk-1 (murine VEGFR-2) kinase domain (Mus musculus, UniProt P35918).
T1 construct: 7 nM Flk-1 (kinase domain)
Put plainly: Flk-1 (murine VEGFR-2) Biochemical Assay (TR-FRET). As to conditions: 10 μM ATP, 7 nM Flk-1 (kinase domain). On the technique in general: TR-FRET usually uses a lanthanide donor and a delayed reading to cut background.

The test system of experiment [2] is P-AKT/PKB in H209 small cell lung carcinoma cells. Put plainly: P-AKT/PKB Cytoblot Assay with H209 cells (SCF-stimulated). Type of experiment: cell-based. As to conditions: Homo sapiens, NCI-H209, 1 hour compound incubation, SCF 25 ng/mL for 5 minutes, p-(S473) AKT. The text has this: The utility of the compounds of the present invention can be illustrated, for example, by their activity in the P-AKT/PKB Cytoblot Assay described below. The involvement of the P-AKT/PKB[PI3K/AKt] pathway as a target for cancer chemotherapy has been recognized in the art. For example, see F. Chang et al, Involvement of PI3K/Akt pathway in cell cycle progression, apoptosis, and neoplastic transformation: a target for cancer chemotherapy, Leukemia, 2003, 17: p. 590-603; K. A. West et al, Activation of the PI3K/Akt pathway and chemotherapeutic resistance, Drug Resistance Updates, 2002, 5: p. 234-248; and P. Sen et al, Involvement of the Akt/PKB signaling pathway with disease processes, Molecular and Cellular Biochemistry, 2003, 253: p. 241-246.
P-AKT/PKB Cytoblot Assay Protocol with H209 Cells
H209 small cell lung carcinoma cells in log phase were plated at 50,000 cells/well in 96-well poly-lysine coated, clear bottom/black-sided plates (Becton-Dickinson, USA Cat # 354640) in 100 Ill RPMI medium containing 0.1% (w/v) BSA, and incubated overnight at 37° C. in 5% CO2 incubator. The following day, compounds (10 mM stock solutions in DMSO) were added to the plates to generate final concentrations of 0.0, 0.01, 0.03, 0.1, 0.3, 1.0, 3.0 and 10 μM for IC50 determinations and incubated for 1 hour at 37° C. Cells were then left untreated or stimulated with Stem Cell Factor (SCF: Biosource Cat # PHC2116) at a final concentration of 25 ng/mL for 5 minutes at 37° C. in 5% CO2 incubator. The media was then removed using a vacuum manifold and the cells were washed once with Tris Buffered Saline (TBS). Cells were then fixed by adding 200 μl of cold 3.7% (v/v) formaldehyde in TBS to each well for 15 minutes at 4° C. After removal of the formaldehyde, the cells were treated with the addition of 50 μl of methanol (at −20° C.) to each well for 5 minutes. After removal of the methanol, 200 μl of 1% (w/v) BSA in TBS was added to each well to block non-specific antibody binding sites and the plate was incubated at room temperature for 30 minutes.
After removal of the blocking buffer, 50 μl of p-(S473) AKT rabbit polyclonal antibody (Cell Signaling, USA Cat # 9277S) was added at a dilution of 1:250 in 0.1% (w/v) BSA in TBS, and the plate was incubated at room temperature for 1 hour. Plates were then washed 3 times with cold TBS containing 0.05% (v/v) Tween 20 (TBS-T) and 100 μl of Horseradish peroxidase (HRP)-conjugated goat-anti-rabbit antibody (Amersham, USA Cat # NA934V) at a dilution of 1:250 in TBS-T was added and the plate was incubated at room temperature for 1 h. After washing with ice-cold TBS-T four times, 100 μl of Enhanced Chemiluminescence (ECL) reagent (Amersham, USA Cat# RPN2209) was added to each well and mixed on a mini-orbital shaker for 1 min. The plate was then read on a Perkin Elmer Victor 5 Multilabel Counter (#1420-0421).

T1 sequence (P35918 832-1160 limits assumed): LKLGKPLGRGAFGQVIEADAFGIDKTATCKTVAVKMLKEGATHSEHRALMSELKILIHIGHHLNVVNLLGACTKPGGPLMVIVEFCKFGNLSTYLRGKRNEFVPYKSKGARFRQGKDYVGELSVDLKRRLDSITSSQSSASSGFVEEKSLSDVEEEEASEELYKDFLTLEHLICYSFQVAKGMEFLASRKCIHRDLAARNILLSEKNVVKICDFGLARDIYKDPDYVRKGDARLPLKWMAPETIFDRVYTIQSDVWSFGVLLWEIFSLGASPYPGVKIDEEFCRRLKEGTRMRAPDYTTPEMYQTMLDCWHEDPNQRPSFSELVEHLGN

For orientation: IC50 means the concentration that gives 50% inhibition. Read a high IC50 as weaker potency in that assay. As to `O=C(NCCCCN1CCCC1)c1cc(CNc2ncsc2C(=O)Nc2ccc3c(c2)OC(F)(F)O3)ccn1` [Example 5, 4-{[(5-{[(2,2-difluoro-1,3-benzodioxol-5-yl)amino]carbonyl}-1,3-thiazol-4-yl)amino]methyl}-N-(4-pyrrolidin-1-ylbutyl)pyridine-2-carboxamide], in experiment [1], the IC50 was < 500 nM.

Consider `CS(=O)(=O)Nc1cc(CNc2ncsc2C(=O)Nc2ccc3c(c2)OC(F)(F)C(F)(F)O3)ccn1` [Example 12, 4-[({2-[(methylsulfonyl)amino]pyridin-4-yl}methyl)amino]-N-(2,2,3,3-tetrafluoro-2,3-dihydro-1,4-benzodioxin-6-yl)-1,3-thiazole-5-carboxamide], for which the 50% inhibitory concentration (IC50) in experiment [1] and in experiment [2] was < 500 nM throughout.

On to `Nc1cc(CNc2ncsc2C(=O)Nc2ccc3c(c2)OC(F)(F)O3)ccn1` [Example 15, 4-{[(2-aminopyridin-4-yl)methyl]amino}-N-(2,2-difluoro-1,3-benzodioxol-5-yl)-1,3-thiazole-5-carboxamide], for which the half-maximal inhibitory concentration (IC50) in experiment [2] is < 500 nM.

As to `NC(=O)c1cc(CNc2ncsc2C(=O)Nc2ccc3c(c2)OC(F)(F)O3)ccn1` [Example 3, 4-{[(5-{[(2,2-difluoro-1,3-benzodioxol-5-yl)amino]carbonyl}-1,3-thiazol-4-yl)amino]methyl}pyridine-2-carboxamide], the half-inhibitory concentration (IC50) in experiment [1] and in experiment [2] was < 500 nM each time.

With `CN(C)CCCCNC(=O)c1cc(CNc2ncsc2C(=O)Nc2ccc3c(c2)OC(F)(F)O3)ccn1` [Example 6, 4-{[(5-{[(2,2-difluoro-1,3-benzodioxol-5-yl)amino]carbonyl}-1,3-thiazol-4-yl)amino]methyl}-N-[4-(dimethylamino)butyl]pyridine-2-carboxamide], the IC50 in experiment [1] and in experiment [2] was < 500 nM each time.

On to `Nc1cc(CNc2ncsc2C(=O)Nc2ccc3c(c2)OC(F)(F)C(F)(F)O3)ccn1` [Example 16, 4-{[(2-aminopyridin-4-yl)methyl]amino}-N-(2,2,3,3-tetrafluoro-2,3-dihydro-1,4-benzodioxin-6-yl)-1,3-thiazole-5-carboxamide], for which the IC50 in experiment [1] and in experiment [2] was < 500 nM in each case.
